Measurements reported in patent publication US6107517A, “Thyroid hormone analogues and methods for their preparation” (The Regents of the University of California, priority 1999, dated 2000).

Experiments:
[1] = tested on: β-galactosidase reporter gene construct (HeLa cells); assay: β-galactosidase reporter control expression in HeLa cells; assay type: cell-based; details: 1nM T3 or Compound (I-1) 10^-6 M to 10^-5 M
From the text: (§1) For transfections, cells are trypsinized, resuspended in buffer (PBS, 0.1% glucose), and mixed with a reporter gene construct and with or without the appropriate thyroid receptor (TR) expression vectors (CMV TR β1,CMV TR α1). One such reporter gene construct consists of a synthetic TR response element (DR-4) containing two copies of a direct repeat spaced by four nucleotides (AGGTCA-caggAGGTCA) cloned into the HindIII site of the pUC19 polylinker immediately upstream of a minimal (-32/+45) thymidine kinase promoter linked to luciferase coding sequences. Another reporter gene construct that can be used consists of the β-galactosidase coding sequence fused downstream of an actin promoter.
Cells in 0.5 ml of buffer (8+/-2 million cells) are electroporated using a Bio-Rad gene pulser at 0.35 kvolts and 960 microfarads. […] After incubation at 37° C. for 24 hours, incubation media is discarded and the cells are detached with 1 ml of calcium/magnesium-free PBS, 1mM EDTA, prewarmed at 37° C., and transferred to 1.5 ml Eppendorf tubes. Cells are pelleted by centrifugation in a microfuge for 15 seconds at room temperature. The supernatants are aspirated and the pellets are lysed by addition of 120 μl of Tris-Cl 0.25 M pH 7.6, 0.1% Triton. […] The light output is measured for 10 sec at room temperature with a luminometer (Analytical Luminescence Laboratory, MONOLIGHT^R 1500).

HeLa cells = assay: Toxicity in HeLa cells (change in cell morphology, or lifting off of cells from a growth surface); assay type: cell-based
hTRα [2] = molecular target: T1, hTRα (Homo sapiens, UniProt P10827); assay: Cellular transcription (luciferase) assay in HeLa cells overexpressing hTRα; assay type: cell-based; details: for activation of transcription via hTRα (luciferase): 24 hours at 37° C., T3 10^-12 to 10^-7 M, I-3 10^-10 to 3×10^-5 M, I-1 10^-9 to 3×10^-5 M
T1 construct: made in house; host or cells: E. coli
T1 sequence (P10827 1-410 isoform P10827-2): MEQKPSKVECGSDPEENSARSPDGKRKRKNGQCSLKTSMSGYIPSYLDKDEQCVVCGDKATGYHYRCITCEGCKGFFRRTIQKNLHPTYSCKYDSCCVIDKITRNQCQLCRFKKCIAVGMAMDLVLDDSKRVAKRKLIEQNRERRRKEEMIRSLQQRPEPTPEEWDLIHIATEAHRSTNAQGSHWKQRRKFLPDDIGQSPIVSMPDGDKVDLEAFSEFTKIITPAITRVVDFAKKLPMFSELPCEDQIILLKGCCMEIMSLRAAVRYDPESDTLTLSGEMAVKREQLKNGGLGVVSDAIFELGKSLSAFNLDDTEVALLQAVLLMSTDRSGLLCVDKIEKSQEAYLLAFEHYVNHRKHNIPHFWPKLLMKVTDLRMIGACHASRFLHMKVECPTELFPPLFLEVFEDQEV
Experimental: (§2) Cellular transactivation assays can be performed according to the procedure in Ribeiro R. C. et al. (1996) J. Biol. Chem. 271, 17147-17151. Briefly, HeLa cells are grown in 15 cm dishes in DME H-21, 4.5 g/L glucose with 10% newborn bovine serum, 2 mM glutamine, 50 units/ml penicillin, and 50 μg/ml streptomycin.
as §1
(§3) Cells in 0.5 ml of buffer (8+/-2 million cells) are electroporated using a Bio-Rad gene pulser at 0.35 kvolts and 960 microfarads. […] After incubation at 37° C. for 24 hours, incubation media is discarded and the cells are detached with 1 ml of calcium/magnesium-free PBS, 1mM EDTA, prewarmed at 37° C., and transferred to 1.5 ml Eppendorf tubes. Cells are pelleted by centrifugation in a microfuge for 15 seconds at room temperature. The supernatants are aspirated and the pellets are lysed by addition of 120 μl of Tris-Cl 0.25 M pH 7.6, 0.1% Triton. After resuspension by vortexing for 5-10 sec, the lysates are pelleted by centrifugation in a microfuge for 5 min at room temperature. One hundred μl of each Eppendorf tube lysate is added to 300 μl of 25 mM glycylglycine pH 7.8, 15 mM MgSO4, 4 mM EGTA, 15 mM potassium phosphate pH 7.8, 1 mM DTT, 2 mM ATP, and 0.2 mM Luciferine. The light output is measured for 10 sec at room temperature with a luminometer (Analytical Luminescence Laboratory, MONOLIGHT^R 1500). […]

hTRα [3] = molecular target: T1, hTRα; assay: Receptor binding assay: competition with [125I]T3 for binding to recombinant hTRα
Experimental: (§4) To test the ability of synthesized human thyroid receptor (hTR) ligands to bind to two subtypes of hTR, hTRα and hTRβ, the binding affinity of a TR ligand for a TR can be assayed using TRs expressed in E. coli and [^125 I ] […] The binding affinity of a ligand for its receptor is defined by a constant termed Kd and can be calculated using a curve fitting program.
(§5) The ability of [^125 I] […] In control experiments, either purified recombinant hTRα or hTRβ was incubated with [^125 I] […] To test the analogues, either purified recombinant hTRα or hTRβ was incubated with [^125 I]

hTRβ [4] = molecular target: T2, hTRβ (Homo sapiens, UniProt P10828); assay: Cellular transcription (luciferase) assay in HeLa cells overexpressing hTRβ; assay type: cell-based; details: for activation of transcription via hTRβ (luciferase): 24 hours at 37° C., T3 10^-12 to 10^-7 M, I-3 10^-10 to 3×10^-5 M, I-1 10^-9 to 3×10^-5 M
T2 construct: expressed in transfected cells; host or cells: HeLa cells
T2 sequence (P10828 1-461): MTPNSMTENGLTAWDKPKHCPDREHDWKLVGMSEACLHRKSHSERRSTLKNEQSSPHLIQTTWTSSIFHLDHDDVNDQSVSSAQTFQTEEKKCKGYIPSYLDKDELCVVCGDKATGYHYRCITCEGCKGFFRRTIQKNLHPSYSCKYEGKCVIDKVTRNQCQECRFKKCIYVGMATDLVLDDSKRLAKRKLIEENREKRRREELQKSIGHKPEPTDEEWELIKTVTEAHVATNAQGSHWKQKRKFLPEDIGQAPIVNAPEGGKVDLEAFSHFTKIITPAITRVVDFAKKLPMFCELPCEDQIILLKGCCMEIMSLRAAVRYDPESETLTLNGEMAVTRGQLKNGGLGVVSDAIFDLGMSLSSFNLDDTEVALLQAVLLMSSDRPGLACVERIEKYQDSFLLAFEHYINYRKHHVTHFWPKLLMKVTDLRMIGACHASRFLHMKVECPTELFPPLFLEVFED
Experimental: as §2, §1, §3

hTRβ [5] = molecular target: T2, hTRβ; assay: Receptor binding assay: competition with [125I]T3 for binding to recombinant hTRβ
Experimental: as §4, §5

[6] = tested on: luciferase reporter gene (HeLa cells); assay: Luciferase activity in HeLa cells containing reporter constructs but no overexpressed hTRs; assay type: cell-based; details: highest concentration [10^-5]
Experimental: as §2, §1
Cells in 0.5 ml of buffer (8+/-2 million cells) are electroporated using a Bio-Rad gene pulser at 0.35 kvolts and 960 microfarads. […] The light output is measured for 10 sec at room temperature with a luminometer (Analytical Luminescence Laboratory, MONOLIGHT^R 1500).

TRβ = details: literature / earlier patent; cited from earlier work

SMILES	expression of β-galactosidase [1]	activation of transcription via hTRα (luciferase) (hTRα [2])	Kd (hTRα [3])	activation of transcription via hTRβ (luciferase) (hTRβ [4])	Kd (hTRβ [5])	also measured
CCCCN(C)C(=O)CCCCCCCCCCC(c1ccc(O)c(C(C)C)c1)c1c(C)cc(OCC(=O)O)cc1C (centres unmarked) [Compound I-1]	not affected	did not appear to activate hTR-mediated transcription	~77 nM	did not appear to activate hTR-mediated transcription	~180 nM	concentration at which toxicity was observed (HeLa cells): 10 µM; competition with T3 / antagonism, hTRα (hTRα [2]): still able to compete with T3; competition with T3 / antagonism, hTRβ (hTRβ [4]): still able to compete with T3; luciferase activity without cotransfected TR-expression construct [6]: occurs even when a TR-expression construct is not cotransfected into HeLa cells
CCCCN(C)C(=O)CCCCCC/C=C\CCC(c1ccc(O)c(C(C)C)c1)c1c(C)cc(OCC(=O)O)cc1C (centres unmarked) [Compound I-2]	–	–	~237 nM	–	~721 nM	–
Cc1cc(OCC(=O)O)cc(C)c1Cc1ccc(O)c(C(C)C)c1 [GC-1]	–	–	–	–	–	affinity and TR subtype selectivity (background) (TRβ): high affinity TRP-selective agonist ligand
N[C@@H](Cc1cc(I)c(Oc2ccc(O)c(I)c2)c(I)c1)C(=O)O [Compound T3, 3,5,3'-triiodo-L-thyronine, reference compound]	not affected	–	–	–	–	–
C=CCC(c1ccc(O)c(C(C)C)c1)c1c(C)cc(OCC(=O)O)cc1C (centres unmarked) [Compound I-3]	–	able to stimulate transcription and translation of the luciferase gene through both subtypes of hTR, though to a lesser degree than. T3	~138 nM	able to stimulate transcription and translation of the luciferase gene through both subtypes of hTR, though to a lesser degree than. T3	~36 nM	–
